{
  "source": "paper PMC10224444",
  "about": "“Novel Perspectives on the Design and Development of a Long-Acting Subcutaneous Raltegravir Injection for Treatment of HIV—In Vitro and In Vivo Evaluation” (Pharmaceutics, 2023)",
  "key": {"[1]": {"design": "method as in PMID 33979164", "conditions": "cited from earlier work"}, "[2]": {"design": "method as in PMID 33979164", "conditions": "pH 7.0, over 5 h; cited from earlier work"}, "[3]": {"design": "method as in PMID 33979164", "conditions": "cited from earlier work", "remark": "listed apart in the source"}, "[4]": {"design": "method as in PMID 36678931", "conditions": "pH 6.5, over 6 d; cited from earlier work"}, "[5]": {"design": "method as in PMID 23515248", "conditions": "cited from earlier work"}, "[6]": {"test": "Pharmacokinetic study after single SC injection in BALB/c mice", "assay_type": "in vivo", "conditions": "mouse, in vivo, single SC 30 mg/kg", "experimental": "The pharmacokinetic profile of prodrug 25 was evaluated in mice, in a study undertaken at WuXi AppTec. Prodrug 25 was dissolved in a sterile vehicle of DMSO/Solutol HS15/water (10:10:80) to give a clear solution with a final concentration of 6 mg/mL. The same procedure was used to prepare a 6 mg/mL solution of RAL as a control. Six male BALB/c mice were used, each weighing 18–25 g and aged between 7–9 weeks (three per group). A single 30 mg/kg dose of prodrug 25 was administered to each animal in the treatment group (subcutaneously, in the thoracic region). Similarly, RAL (30 mg/kg) was administered to each animal in the control group. Blood samples were taken at the time points indicated below, up to the experiment endpoint (96 h).\nFor each animal, blood samples (30 μL each) were collected from the submandibular or saphenous vein over a period of 96 h, at the following time points: zero/pre-dose; then 0.25, 0.5, 1, 2, 3, 4, 5, 6, 24, 48, and 96 h. All samples were transferred into pre-chilled commercial K2EDTA tubes and placed on wet ice until processing for plasma, which was obtained by centrifugation at 4 °C and 3200× g for 10 min, within 30 min of sampling. The plasma samples were transferred to polypropylene tubes, snap-frozen on dry ice, and kept at −70 ± 10 °C until LC-MS/MS analysis.\nAn LC-MS/MS method was developed to measure the concentrations of prodrug 25 and RAL in the biological matrix. Two mobile phases were used: mobile phase A (0.025% NH4OH and 2 mM NH4OAc in 95:5 v/v water/MeCN) and mobile phase B (0.025% NH4OH and 2 mM NH4OAc in 5:95 v/v water/MeCN). A UPLC method was performed using an LC-MS/MS-BM Triple Quad 6500 plus system with an ACQUITY UPLC BEH C18 1.7 μm column (2.1 × 50 mm) at a flow rate of 0.65 mL/min. The assay time was 2.5 min, and the solvent B composition was as follows: 10–100% (0.2–1.4 min), 30% (1.41–1.7 min), 95% (2.0–2.4 min), and 10% (2.41–2.5 min). The retention times for the prodrug, RAL and the internal standards (tolbutamide and verapamil) were 0.76, 1.04, 0.66, and 0.97 min, respectively. Quantification was performed by monitoring the transition of m/z 835.3 [M+H]^+ to 457.2 for prodrug 25, representing the cyclisation of the linker with the amidic RAL such as in side-product 22; whereas for RAL, the transition m/z 445.2 [M+H]^+ to 361.2 was followed, representing the loss of the 2-methyl-1,3,4-oxadiazole moiety as the main fragmentation pathway. For the internal standards, the m/z transition from 455.2 [M+H]^+ to 164.9 was used for verapamil (corresponding to formation of the verapamil fragment [CH2CH2-(3,4-dimethoxy phenyl)]^+), and for tolbutamide, the transition of m/z of 271.1 [M+H]^+ to 155.1 was used, representing formation of the [CH3-Ph-SO2]^+ fragment. […] The method was linear over the measured standard concentrations for 25 and RAL. The mean plasma concentration was determined for 25 and RAL (as metabolite or control) at each sampling time point. Pharmacokinetic parameters were then calculated by non-compartmental analysis of plasma concentration/time profiles using the Phoenix WinNonlin 6.3 software. The computed parameters were as follows: peak plasma concentration (Cmax); the time over which the initial concentration is reduced to half (t½); area under the plasma concentration versus time curve from time zero to 96 h (AUC 0–96 h); and mean residence time from time zero to 96 h (MRT 0–96 h).\nSince in vitro models are not fully predictive of in vivo pharmacokinetics, especially for prodrugs, assessment of these characteristics still relies on in vivo studies. Therefore, the pharmacokinetic profile of prodrug 25 was evaluated in mice. Compound 25 and the control (RAL) were dissolved in DMSO/Solutol HS15/water (10:10:80). For a single SC injection of 25 (30 mg/kg) in BALB/c mice (n = 3), the plasma concentrations of prodrug and released RAL were measured at the following time points: zero/pre-dose; then 0.25, 0.5, 1, 2, 3, 4, 5, 6, 24, 48, and 96 h. […]"}, "[7]": {"design": "method as in PMID 18321239", "conditions": "cited from earlier work"}, "[8]": {"conditions": "plasma level of the dosed compound, male BALB/c mice, n = 3"}},
  "data": [
    {"smiles": "CNCCCOC(=O)OCOc1c(-c2ccc(Oc3ccc(OC(F)(F)F)cc3)cc2F)c(C)nc2cc(OC)c(Cl)cc12", "note": "[Compound 2]", "values": [
      {"measurement": "aqueous solubility compared with the parent compound", "setting": "[1]", "result": "enhanced"},
      {"measurement": "payload released over 5 h", "setting": "[2]", "result": "> 55", "unit": "%"},
      {"measurement": "oral bioavailability compared with the parent compound", "setting": "[3]", "result": "enhanced"}
    ]},
    {"smiles": "C#CCCCNCCCCOC(=O)OCOc1ccc(N)cc1C(=O)O", "note": "[Compound 4]", "values": [
      {"measurement": "release of mesalamine over 6 d", "setting": "[4]", "result": 92, "unit": "%"}
    ]},
    {"smiles": "Cc1nnc(C(=O)NC(C)(C)c2nc(C(=O)NCc3ccc(F)cc3)c(O)c(=O)n2C)o1", "note": "[RAL, raltegravir]", "values": [
      {"measurement": "pKa", "setting": "[5]", "result": 6.7},
      {"measurement": "concentration at 6 h", "setting": "[6]; male, RAL control, BALB/c mice, 6 h, read-out: plasma concentration remaining after 6 h", "result": 10.7, "unit": "ng/mL"},
      {"measurement": "Cmax", "setting": "[6]; [8]", "result": 6230, "unit": "ng/mL"},
      {"measurement": "Tmax", "setting": "[6]; [8]", "result": 19.8, "unit": "min"},
      {"measurement": "AUC(0-t)", "setting": "[6]; plasma level of the dosed compound, male BALB/c mice, n = 3, read-out: AUC 0–96 h", "result": 9890, "unit": "ng·h/mL"},
      {"measurement": "half-life", "setting": "[6]; plasma level of the dosed compound, male BALB/c mice, n = 3, read-out: t½ (converted)", "result": 45.6, "unit": "min"},
      {"measurement": "half-life (t½)", "setting": "[7]", "result": "420 to 720", "unit": "min"}
    ]}
  ]
}
